# From patent publication US11092602B2, “Methods and compositions relating to proteasome inhibitor resistance” (Whitehead Institute for Biomedical Research, priority 2015, dated 2021)
# “Also recorded” adds a separate entry of the source. Residues, ends and D or L forms follow the SMILES beside them. *: point of attachment. Cbz = O=C(OCc1ccccc1)*
# Legend:
# T47D cells [1] = experiment: Selleck anti-cancer compound library screen, PSMD2 KD versus control T47D cells (resazurin); format: cell-based, human; conditions: 4 concentrations, 72 hours
# Experimental: After 48 hours the cells were collected, counted, and plated at 1000 cells/well in 384 well plates in duplicates for each cell line. Compounds from the Selleck Chemicals anti-cancer compound library β49 drugs in 4 concentrations; […]) were pinned the next day and viability was measured after 72 hours by the reduction of Resazurin (Ex=530 nm, Em=590 nm).
# The effect of each drug on viability of cells was calculated by averaging the duplicate experiments. The data is plotted in FIG. 16 as the log2 of the ratio of viability of PSMD2 KD versus control cells (log2 (shPSMD2/Control)).
# T47D cells [2] = experiment: CellTiter-Glo viability of PSMD2 KD versus control T47D cells with BCL2 family inhibitors; format: cell-based, human
# Experimental: Cell viability was measured by CellTiter-Glo® Luminescent Cell Viability Assay 72 hours after addition of the compounds to cells.
# IMR32 and Kelly cells [3] = experiment: CellTiter-Glo viability of IMR32 and Kelly neuroblastoma cells; format: cell-based; conditions: 72 hours
# Experimental: IMR32 and Kelly cells were each cultured in the presence of bortezomib at concentrations ranging from 0.001 um to 0.100 um. […] The fold viability relative to culture in the absence of bortezomib was determined for each cell line.
# The fold viability relative to culture in the absence of the compound was determined for each cell line.
# IMR32 and Kelly cells [4] = experiment: as above; format: cell-based; conditions: 72 hours; remark: listed apart in the source
# T47D cells [5] = experiment: Cell viability of T47D cells with doxycycline-inducible PSMD2 shRNA; format: cell-based, human; conditions: for resistance of cells harboring the PSMD2 shRNA versus parental line (EC50): doxycycline 3 days, 96 hour culture
# Experimental: T47D cells harboring a doxycycline inducible control shRNA (GFP) or a doxycycline-inducible PSMD2 shRNA (TurboRFP) were incubated with doxycycline for 3 days. Cells were then split and grown in the absence of Dox and proteasome inhibitors were then added at various concentrations. Cells were maintained in culture and then counted.
# For the generation of the T47D Tet-inducible PSMD2 knockdown cell line—the TRIPZ vector with an inducible shRNA targeting PSMD2 was purchased from Dharmacon (clone V3THS_403760). It was introduced to the T47D cells according to manufactures protocol and cells were selected with puromycin 1 μg/ml for one week. The cells were exposed to doxycycline for 24 hours and cells were FACS sorted for the top 10% of most RFP expressing cells (highest expression of shRNA). The cells were further cultured in the absence of doxycycline and PSMD2 knockdown was induced as specified in the relevant Examples.
# Relative cell growth and survival were measured in 96-well microplate format in the shRNA experiments and in 384 well format in the drug toxicity assays, by using the fluorescent detection of resazurin dye reduction as an endpoint (544 nm excitation and 590 nm emission). 2,500 cells in 96 wells format or 1,000 cells in 384 well format were plated 24 hours before compound exposure (for 72 hours or indicated time). Each analysis was performed at least with three replicas.
# Saccharomyces cerevisiae = experiment: Yeast DAmP strains MG132 sensitivity assay; format: cell-based; conditions: 50 μM MG132, 48 hours
# From the text: Additionally, because the essential role of the proteasome in maintaining protein homeostasis is conserved across all eukaryotes (Hilt and Wolf, 1995), we asked whether reducing expression of 19S subunits confers resistance to proteasome inhibitors in an evolutionary distant organism—the yeast Saccharomyces cerevisiae. As the 19S regulatory complex components are essential for viability in yeast, we utilized a library of hypomorphic (DAmP) alleles for essential yeast genes. In this library, the expression of individual mRNA species is reduced from two to ten-fold by replacing the mRNA's 3′ untranslated region (Breslow et al., 2008).
# Yeast cells were grown over night in media containing L-proline as nitrogen source instead of ammonium sulfate. […] OD was measured over the period of 48 hours.
# T47D cells [6] = experiment: Competition co-culture of shPSMD2-RFP and shControl-GFP T47D cells, FACS and microscopy; format: cell-based, human; conditions: 1:10 plating ratio; concentration-dependent
# Experimental: We created two cell lines—one line that expresses red fluorescent protein (turboRFP) and the doxycycline-inducible PSMD2-targeting shRNA and another line that expresses green fluorescent protein (GFP) and a doxycycline-inducible control shRNA (FIG. 6A). First, we induced shRNA expression with doxycycline for 48 hours. After recovery, we mixed shPSMD2-RFP and shControl-GFP cells at different ratios (either 1:1, 1:2, 1:5 or 1:10), adding the cells with reduced PSMD2 as the minority subpopulation. Twenty-four hours after plating, we treated these mixed populations of cells for 48 hours with increasing concentrations of bortezomib (5, 7.5 or 10 nM). We allowed the cells to recover in the absence of bortezomib and then we quantified the red and green cells by FACS analysis (FIG. 6A) and captured representative images by fluorescence microscopy (FIG. 6B).
# The experiment described in Example 10 was repeated with minor differences using a panel of different proteasome inhibitors: MLN2238, MLN9708, and oprozomib T47D cells harboring a doxycycline inducible control shRNA (GFP) or a doxycycline-inducible PSMD2 shRNA (TurboRFP) were incubated with doxycycline for 3 days. Cells were collected, counted, and plated at a 1:10 ratio of TurboRFP-expressing PSMD2 shRNA cells/GFP expression control shRNA cells in the absence of Dox. Proteasome inhibitors were added at the specified concentrations and cells were maintained in culture. Cells were allowed to recover in the absence of the proteasome inhibitor and then analyzed by FACS (FIG. 8B, top) or visualized by microscopy (FIG. 8B, bottom). In the absence of proteasome inhibitors, the initial plating ratio of these cells (1:10) was maintained over the duration of the experiment (FIG. 8B). […] The effect was concentration-dependent in that higher concentrations elicited more substantial shifts.
# cells were trypsinized in 100 μL Accumax® solution and further diluted into 100 μl PBSx1. The number of cells with red or green fluorescent proteins was measured by MACSQuant® VYB according to manufactures protocol. Images of RFP and GFP were created by overlaying images using Fiji software.
Molecule,"selective effect on viability, PSMD2 KD versus control cells (log2 (shPSMD2/Control)) (T47D cells [1])",sensitivity of IMR32 cells versus Kelly cells (IMR32 and Kelly cells [3]),shift of surviving cell populations towards PSMD2 shRNA cells (T47D cells [6]),resistance of cells harboring the PSMD2 shRNA versus parental line (EC50) (T47D cells [5]),further results
"CC1(C)CCC(c2ccc(Cl)cc2)=C(CN2CCN(c3ccc(C(=O)NS(=O)(=O)c4ccc(N[C@H](CCN5CCOCC5)CSc5ccccc5)c(S(=O)(=O)C(F)(F)F)c4)cc3)CC2)C1 [ABT-263, navitoclax]",selectively inhibits growth of T47D cancer cells that have a reduced level of PSMD2; also recorded: selectively reduce the viability of PSMD2 KD cells versus control cells,dramatically more sensitive; also recorded: significantly more sensitive,,,"sensitivity of PSMD2 KD cells versus control cells (T47D cells [2]; 72 hours): more sensitive; sensitization by suppression of 19S subunit PSMD2 (T47D cells [2]; doxycycline-induced): not sufficient, however, to induce a profound sensitization; preferential sensitivity of IMR32 versus Kelly cells, compared between BCL2 family inhibitors (IMR32 and Kelly cells [4]): much greater; sensitivity after reintroduction of the PSMD5 subunit (IMR32 and Kelly cells [4]; IMR32 cells): did not significantly alter"
COc1ccc(-c2ccc3c(N4CCOCC4)nc(N4C[C@@H](C)O[C@@H](C)C4)nc3n2)cc1CO [Ku-0063794],selectively inhibit growth of T47D cancer cells that have a reduced level of PSMD2; also recorded: selectively reduce the viability of PSMD2 KD cells versus control cells,,,,
"CC(C)C[C@@H](C=O)NC(=O)[C@H](CC(C)C)NC(=O)[C@H](CC(C)C)NC(=O)OCc1ccccc1 [MG132, N-(benzyloxycarbonyl)leucinylleucinylleucinal] (Cbz-Leu-Leu-Leu-aldehyde)",,,,,resistance upon doxycycline-induced reduction of PSMD2 (T47D cells [5]; PSMD2 shRNA versus control): significantly increased resistance; resistance of 19S subunit DAmP strains to proteasome inhibition (Saccharomyces cerevisiae): five of these twelve strains had significantly increased resistance
"CC(C)C[C@H](NC(=O)CNC(=O)c1cc(Cl)ccc1Cl)B(O)O [MLN2238, ixazomib]",selectively reduce viability of control cells versus PSMD2 KD cells,,substantially shifted the populations of surviving cells,,
CC(C)C[C@H](NC(=O)[C@H](CCc1ccccc1)NC(=O)CN1CCOCC1)C(=O)N[C@@H](Cc1ccccc1)C(=O)N[C@@H](CC(C)C)C(=O)[C@@]1(C)CO1 [carfilzomib],,,,considerably more resistant,
"Nc1nc(Cl)nc2c1ncn2[C@H]1C[C@H](O)[C@@H](CO)O1 [cladribine, 2-chlorodeoxyadenosine]",selectively inhibit growth of T47D cancer cells that have a reduced level of PSMD2; also recorded: selectively reduce the viability of PSMD2 KD cells versus control cells,,,,
"CCN(CC)C(=S)SSC(=S)N(CC)CC [disulfiram, tetraethylthiuram disulfide]",selectively inhibit growth of T47D cancer cells that have a reduced level of PSMD2; also recorded: selectively reduce the viability of PSMD2 KD cells versus control cells,dramatically more sensitive,,,
CN(NC(=O)CC(=O)NN(C)C(=S)c1ccccc1)C(=S)c1ccccc1 [elesclomol],selectively inhibit growth of T47D cancer cells that have a reduced level of PSMD2; also recorded: selectively reduce the viability of PSMD2 KD cells versus control cells,dramatically more sensitive,,,
COC[C@H](NC(=O)c1cnc(C)s1)C(=O)N[C@@H](COC)C(=O)N[C@@H](Cc1ccccc1)C(=O)[C@@]1(C)CO1 [oprozomib],,,substantially shifted the populations of surviving cells,considerably more resistant,
ixazomib citrate [MLN9708],selectively reduce viability of control cells versus PSMD2 KD cells,,substantially shifted the populations of surviving cells,considerably more resistant,
